This passage reports IC50 results from patent US10323000B2, “Indole derivatives and their use in neurodegenerative diseases” (priority 2014, dated 2019).

For assay [1], the target named is P2X7 (IL-1β release from THP-1 cells) (Homo sapiens (Human), UniProt Q99572). The experiment in a line: IL-1β release assay. It is filed as cell-based. The method, then: IL-1β release assay: The activation of P2X7 by ATP leads to a fast transient activation of cells resulting in influx of Ca^2+ followed by conversion of pro-IL-1β to active IL-1β. The functional activity of P2X7 compounds was measured by the release of mature […] in the culture medium of THP-1 cells, detected by sandwich ELISA. […] THP-1 cells were harvested from the flask in 50 ml by centrifugation for 3 min at 100 g. The cells were resuspended to 2×10^5 cells/ml in medium supplemented with 0.5 μM PMA and incubated. The cells were washed and resuspended to 1.5×10^5 cells/ml in medium complemented with 10 ng/ml LPS, and the cells were primed for 4 h at 37° C., 5% CO2. After addition of 20 μL of prediluted test compounds, blank, standard and control reagents, cells were incubated for a further 20 min at 37° C. and stimulated with 0.8 mM BzATP for 30 minutes. The cells were centrifuged, supernatant was collected and the presence of mature IL-1β was detected using Dual human IL-1b kit following manufacturer's instruction. The tetrahydrobenzodiazepine analogs effectively modulated the activity of P2X7 in the cells as measured by the levels of pro-inflammatory cytokine IL-1β, which is released by the activation of P2X7 receptor.
Chain of P2X7 (IL-1β release from THP-1 cells) (Q99572 whole entry): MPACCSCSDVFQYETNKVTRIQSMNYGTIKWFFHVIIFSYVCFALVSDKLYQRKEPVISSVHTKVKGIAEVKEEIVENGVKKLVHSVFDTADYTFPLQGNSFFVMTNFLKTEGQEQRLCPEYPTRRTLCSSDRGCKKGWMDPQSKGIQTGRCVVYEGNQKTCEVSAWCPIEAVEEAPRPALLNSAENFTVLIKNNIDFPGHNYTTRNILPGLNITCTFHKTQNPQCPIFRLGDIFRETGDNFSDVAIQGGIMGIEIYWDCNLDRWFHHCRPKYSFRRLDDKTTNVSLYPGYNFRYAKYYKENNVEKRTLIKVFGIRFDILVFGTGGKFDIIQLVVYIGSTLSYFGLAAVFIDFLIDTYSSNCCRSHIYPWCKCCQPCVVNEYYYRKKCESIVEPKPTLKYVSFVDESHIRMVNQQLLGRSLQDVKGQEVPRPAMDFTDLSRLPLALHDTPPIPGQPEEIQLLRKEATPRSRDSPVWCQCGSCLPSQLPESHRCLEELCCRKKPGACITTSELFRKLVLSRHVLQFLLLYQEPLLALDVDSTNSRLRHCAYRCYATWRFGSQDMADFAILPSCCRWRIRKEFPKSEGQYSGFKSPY

The target in the next assay is human P2X7 receptor (Homo sapiens (Human), UniProt Q99572). The assay is described as follows: Pore permeation assay (YO PRO dye uptake). In kind it is cell-based.
Chain of human P2X7 receptor (Q99572 whole entry): as above
Setting [2] is: HEK293 transfected with human P2X7, BzATP 10 uM, YO PRO dye uptake, read-out: hP2X7 IC50.
The mark [3] stands for this setting: THP-1 cells, LPS primed, 0.8 mM BzATP, mature IL-1β by sandwich ELISA, read-out: hTHP-1/IL-ib IC50.

Read-outs that look alike come from different tables or passages of the source. Some results are limits rather than exact numbers.

On to `CC1CCCC(O)(CNC(=O)c2cn(C3COC3)c3cccc(Cl)c23)C1` (centres unmarked) [Compound 83, 4-chloro-N-((1-hydroxy-3-methylcyclohexyl)methyl)-1-(oxetan-3-yl)-1H-indole-3-carboxamide], for which the figures for the IC50 (in assay [1]; at human P2X7 receptor (setting [2])) were 0.01 to 0.1 µM and less than 0.01 µM, respectively.

With `O=C(NC[C@@]1(O)CCCC(F)(F)C1)c1cn(C2COC2)c2cccc(Cl)c12` [Compound 84, (R)-4-chloro-N-((3,3-difluoro-1-hydroxycyclohexyl)methyl)-1-(oxetan-3-yl)-1H-indole-3-carboxamide], the IC50 (in assay [1]; at human P2X7 receptor) was 0.101 to 0.5 µM in each case.

On to `O=C(NC[C@]1(O)CCCC(F)(F)C1)c1cn(C2COC2)c2cccc(Cl)c12` [Compound 85, (S)-4-chloro-N-((3,3-difluoro-1-hydroxycyclohexyl)methyl)-1-(oxetan-3-yl)-1H-indole-3-carboxamide], for which the IC50 (in assay [1]; against human P2X7 receptor) was 0.01 to 0.1 µM throughout.

Turning to `O=C(NC[C@@H]1CCCC[C@H]1O)c1cn(C2COC2)c2cccc(Cl)c12` [Compound 87], the IC50 was more than 1 µM in assay [1] (setting [3]) and 0.101 to 0.5 µM against human P2X7 receptor.

For `O=C(NC[C@H]1CCCC[C@H]1O)c1cn(C2COC2)c2cccc(Cl)c12` [Compound 88, cis-4-Chloro-1-oxetan-3-yl-1H-indole-3-carboxylic acid ((1R,2R)-2-hydroxy-cyclohexylmethyl)-amide], the IC50 was more than 1 µM in assay [1] (setting [3]) and 0.101 to 0.5 µM on human P2X7 receptor.

With `CC1CC(F)(F)CC(O)(CNC(=O)c2cn(C3COC3)c3cccc(Cl)c23)C1` (centres unmarked) [Compound 89, 4-chloro-N-((3,3-difluoro-1-hydroxy-5-methylcyclohexyl)methyl)-1-(oxetan-3-yl)-1H-indole-3-carboxamide], the IC50 in assay [1] was in the range of 0.5 to 0.999 µM; at human P2X7 receptor it was 0.101 to 0.5 µM.

Turning to `C[C@H]1CCC[C@@](O)(CNC(=O)c2cn(C3COC3)c3cccc(Cl)c23)C1` [Compound 90, 4-chloro-N-(((1S,3S)-1-hydroxy-3-methylcyclohexyl)methyl)-1-(oxetan-3-yl)-1H-indole-3-carboxamide], the IC50 in assay [1] was 0.01 to 0.1 µM; at human P2X7 receptor (setting [2]) it was less than 0.01 µM.

Take `O=C(NCC1CC(C(F)(F)F)CC(F)(F)C1)c1cn(C2COC2)c2cccc(Cl)c12` (centres unmarked) [Compound 91, 4-chloro-N-((3,3-difluoro-5-(trifluoromethyl)cyclohexyl)methyl)-1-(oxetan-3-yl)-1H-indole-3-carboxamide]: the IC50 lay in the range of 0.101 to 0.5 µM in assay [1] and 0.01 to 0.1 µM against human P2X7 receptor.

For the compound `O=C(NCC1(O)CCC(F)(F)CC1)c1cn(C2COC2)c2cccc(Cl)c12` [Compound 92, 4-chloro-N-((4,4-difluoro-1-hydroxycyclohexyl)methyl)-1-(oxetan-3-yl)-1H-indole-3-carboxamide], the IC50 in assay [1] was in the range of 0.101 to 0.5 µM; against human P2X7 receptor, 0.01 to 0.1 µM.

On to `C[C@@H]1CCC[C@](O)(CNC(=O)c2cn(C3COC3)c3cccc(Cl)c23)C1` [Compound 93, 4-chloro-N-(((1R,3R)-1-hydroxy-3-methylcyclohexyl)methyl)-1-(oxetan-3-yl)-1H-indole-3-carboxamide], for which the IC50 in assay [1] is 0.01 to 0.1 µM; at human P2X7 receptor (setting [2]), less than 0.01 µM.

As to `O=C(NCC1CCC(F)(F)CC1)c1cn(C2COC2)c2cccc(Cl)c12` [Compound 94, 4-chloro-N-((4,4-difluorocyclohexyl)methyl)-1-(oxetan-3-yl)-1H-indole-3-carboxamide], the IC50 (in assay [1]; against human P2X7 receptor) was 0.01 to 0.1 µM in each case.

Regarding `O=C(NCC1CCC(F)(F)CC1)c1cn(CCOC(F)F)c2cccc(Cl)c12` [Compound 95, 4-chloro-N-((4,4-difluorocyclohexyl)methyl)-1-(2-(difluoromethoxy)ethyl)-1H-indole-3-carboxamide], the IC50 in assay [1] was in the range of 0.101 to 0.5 µM; on human P2X7 receptor, 0.01 to 0.1 µM.

On to `O=C(NCC1(O)CCC(F)(F)CC1)c1cn(C2CCCO2)c2cccc(Cl)c12` (centres unmarked) [Compound 98, 4-chloro-N-((4,4-difluoro-1-hydroxycyclohexyl)methyl)-1-(tetrahydrofuran-2-yl)-1H-indole-3-carboxamide], for which the IC50 (in assay [1]; against human P2X7 receptor) was 0.101 to 0.5 µM each time.

As to `O=C(NCC1(O)CCCC(C(F)(F)F)C1)c1cn(C2CCOC2)c2cccc(Cl)c12` (centres unmarked) [Compound 100, 4-chloro-N-((1-hydroxy-3-(trifluoromethyl)cyclohexyl)methyl)-1-(tetrahydrofuran-3-yl)-1H-indole-3-carboxamide], the IC50 (in assay [1] (setting [3]); at human P2X7 receptor (setting [2])) was more than 1 µM in each case.

Take `O=C(NCC1CCCCC1)c1cn(C2CCOC2)c2cccc(Cl)c12` (centres unmarked) [Compound 101, 4-chloro-N-(cyclohexylmethyl)-1-(tetrahydrofuran-3-yl)-1H-indole-3-carboxamide]: the IC50 in assay [1] was in the range of 0.5 to 0.999 µM; at human P2X7 receptor it was 0.101 to 0.5 µM.

Turning to `O=C(NCC1C[C@@H]2CC[C@H]1C2)c1cn(C2CCOC2)c2cccc(Cl)c12` (stereo partly drawn) [Compound 105, 4-Chloro-1-(tetrahydro-furan-3-yl)-1H-indole-3-carboxylic acid ((1S,4R)-1-bicyclo[2.2.1]hept-2-ylmethyl)-amide], the IC50 fell in the range of 0.101 to 0.5 µM in assay [1] and 0.01 to 0.1 µM on human P2X7 receptor.

For `CC1CC(O)(CNC(=O)c2cn(C3CCOC3)c3cccc(Cl)c23)CCC1(F)F` (centres unmarked) [Compound 106, 4-Chloro-1-(tetrahydro-furan-3-yl)-1H-indole-3-carboxylic acid (4,4-difluoro-1-hydroxy-3-methyl-cyclohexylmethyl)-amide], the IC50 in assay [1] was in the range of 0.101 to 0.5 µM; against human P2X7 receptor it was 0.5 to 0.999 µM.

On to `CC1(C)CCCC(O)(CNC(=O)c2cn(C3CCOC3)c3cccc(Cl)c23)C1` (centres unmarked) [Compound 107, 4-Chloro-1-(tetrahydro-furan-3-yl)-1H-indole-3-carboxylic acid (1-hydroxy-3,3-dimethyl-cyclohexylmethyl)-amide], for which the IC50 in assay [1] was in the range of 0.101 to 0.5 µM; against human P2X7 receptor, 0.01 to 0.1 µM.

Regarding `O=C(NCCC1CCCC1)c1cn(C2CCOC2)c2cccc(Cl)c12` (centres unmarked) [Compound 108, 4-Chloro-1-(tetrahydro-furan-3-yl)-1H-indole-3-carboxylic acid (2-cyclopentyl-ethyl)-amide], the values for the IC50 (in assay [1]; against human P2X7 receptor) were 0.101 to 0.5 µM and 0.01 to 0.1 µM, respectively.

For `C[C@@H](NC(=O)c1cn(C2CCOC2)c2cccc(Cl)c12)C1C[C@H]2CC[C@@H]1C2` (stereo partly drawn) [Compound 109, 4-Chloro-1-(tetrahydro-furan-3-yl)-1H-indole-3-carboxylic acid ((1R,4S)-1-bicyclo[2.2.1]hept-2-yl-ethyl)-amide], the values for the IC50 (in assay [1]; against human P2X7 receptor) were 0.5 to 0.999 µM and 0.101 to 0.5 µM, respectively.

For the compound `O=C(NCC1CCCC(C(F)(F)F)C1)c1cn(C2CCOC2)c2cccc(Cl)c12` (centres unmarked) [Compound 112, 4-Chloro-1-(tetrahydro-furan-3-yl)-1H-indole-3-carboxylic acid (3-trifluoromethyl-cyclohexylmethyl)-amide], the IC50 in assay [1] fell in the range of 0.101 to 0.5 µM; against human P2X7 receptor it was 0.01 to 0.1 µM.

Take `C[C@@H]1CCC[C@](O)(CNC(=O)c2cn(C3CCOC3)c3cccc(Cl)c23)C1` (stereo partly drawn) [Compound 113, 4-chloro-N-(((1R,3R)-1-hydroxy-3-methylcyclohexyl)methyl)-1-(tetrahydrofuran-3-yl)-1H-indole-3-carboxamide]: the IC50 (in assay [1]; against human P2X7 receptor) was 0.01 to 0.1 µM throughout.

With `O=C(NCC1CCC(F)(F)CC1)c1cn(C2CCOC2)c2cccc(Cl)c12` (centres unmarked) [Compound 114, 4-chloro-N-((4,4-difluorocyclohexyl)methyl)-1-(tetrahydrofuran-3-yl)-1H-indole-3-carboxamide], the values for the IC50 (in assay [1]; against human P2X7 receptor) were 0.101 to 0.5 µM and 0.01 to 0.1 µM, respectively.

Take `O=C(NCC1(O)CCC(F)(F)CC1)c1cn(CC2CCO2)c2cccc(Cl)c12` (centres unmarked) [Compound 115, 4-chloro-N-((4,4-difluoro-1-hydroxycyclohexyl)methyl)-1-(oxetan-2-ylmethyl)-1H-indole-3-carboxamide]: the IC50 (in assay [1]; at human P2X7 receptor) was 0.101 to 0.5 µM each time.

Regarding `O=C(NCC1CCC(F)(F)CC1)c1cn(CC2CCO2)c2cccc(Cl)c12` (centres unmarked) [Compound 116, 4-chloro-N-((4,4-difluorocyclohexyl)methyl)-1-(oxetan-2-ylmethyl)-1H-indole-3-carboxamide], the IC50 (in assay [1]; on human P2X7 receptor) was 0.01 to 0.1 µM in each case.

For the compound `O=C(NCC1CCC(F)(F)CC1)c1cn(CC2(O)CC2)c2cccc(Cl)c12` [Compound 117, 4-chloro-N-((4,4-difluorocyclohexyl)methyl)-1-((1-hydroxycyclopropyl)methyl)-1H-indole-3-carboxamide], the IC50 fell in the range of 0.101 to 0.5 µM in assay [1] and 0.01 to 0.1 µM against human P2X7 receptor.

In the case of `CN1CC(n2cc(C(=O)NCC3(O)CCC(F)(F)CC3)c3c(Cl)cccc32)C1` [Compound 118, 4-chloro-N-((4,4-difluoro-1-hydroxycyclohexyl)methyl)-1-(1-methylazetidin-3-yl)-1H-indole-3-carboxamide], the figures for the IC50 (in assay [1]; against human P2X7 receptor) were 0.01 to 0.1 µM and 0.5 to 0.999 µM, respectively.

`CN1CC(n2cc(C(=O)NCC3CCC(F)(F)CC3)c3c(Cl)cccc32)C1` [Compound 119, 4-chloro-N-((4,4-difluorocyclohexyl)methyl)-1-(1-methylazetidin-3-yl)-1H-indole-3-carboxamide]: the IC50 (in assay [1]; against human P2X7 receptor) was 0.101 to 0.5 µM each time.
